# Experimental data from patent US20260007728A1, “COMBINATION THERAPIES INVOLVING L-ASPARAGINASE” (Jazz Pharmaceuticals Ireland Ltd., priority 2022, published 2026).
# Legend:
# [1] = system: ASNS expression in Burkitt lymphoma lines; test: qPCR gene expression after compound treatment; assay type: cell-based
# Experimental: Cell Culture: Cell culture medium: RPMI 1640 medium (#2198761, Thermo Fisher) supplemented with 10% fetal calf serum (#S00AZ, BioWest) and 1% pen/strep (#15140-122, Thermo Fisher). At day-1, 900 μl cell suspension was seeded in 24-well plates (#662165, Greiner Bio-One) at a density of 128,000 cells/well. At day 0, 100 μl compound was added in three different concentrations to reach a final concentration of 0.316×IC50, 1×IC50, and 3.16×IC50 (unless indicated otherwise). To the control samples, 100 μl 20 mM HEPES+3.16% DMSO was added instead of compound. When the compound is prepared in HEPES instead of DMSO, 20 mM HEPES without DMSO was added to the cells. The cells were collected at 6 hours, 24 hours and 48 hours after addition of the compound and were transferred to a 96-well deep well plate and centrifuged for 5 min at 340×g. Prior to the collection of the cells microscopic pictures were taken from the untreated (control) cells. After removing the medium, 200 μl RNA protect (#76526, Qiagen) was added to the cell pellet and the cells were stored at −80° C.
# RNA isolation: Total RNA was isolated with the SV96 Total RNA Isolation System kit (#Z3505, Promega) according to manufacturer's instructions. The procedure includes a ‘RNAse free DNAse’ gDNA removal step.
# Determining the RNA concentration: RNA concentrations were determined with the RiboGreen (#R11490, Thermo Fisher) kit according to manufacturer's instructions.
# cDNA synthesis: RNA was reverse transcribed into cDNA using the Quantitect Reverse Transcript Kit (#205313, Qiagen) according to manufacturer's instructions. This procedure includes a second ‘RNAse free DNAse’ gDNA removal step, ensuring the complete removal of gDNA from the samples. For each time point (6 h, 24 h, or 48 h) identical volumes of RNA were used for cDNA synthesis. After synthesis, cDNA is diluted with nuclease free water to obtain approximately similar cDNA concentrations per sample.
# qPCR: 1) 50° C. for 10 min (Uracil-DNA glycosylase ([…]) step to remove all potential traces of amplicon DNA from previous qPCRs); 2) 5 min UDP inactivation/denaturation at 95° C.; 3) 40 cycles of 10s denaturation at 95° C., 20s annealing at 60° C., and 30s extension at 72° C.; and 4) Dissociation curve to determine the melting temperature of the qPCR amplicon.
# qPCR Data Analysis: Cq and Tm raw data values are determined by the BioRad CFX manager software from the PCR machine. For every PCR sample that produced a Cq value the corresponding melting temperature of the PCR amplicon (Tm) was checked to identify samples that generated dual or a specific PCR products. A PCR product is regarded a specific when its Tm is >0.5° C. different from that the Tm of the specific PCR amplicon, in this case the Cq value is removed and not used for further data analysis. Cq values were than normalized by subtracting the (mean) Cq value of the two housekeeping genes (ACTB & RPS18) from the Cq value of the gene of interest. The normalized value is called DCq. The Cq difference between sample and the control (DDCq) was calculated by subtracting DCq control from DCq sample. The fold difference in expression between the control (no compound) and the compound treated sample is than calculated according the 2^-DDCq method.
# DLBCL lines = test: Single-agent sensitivity of lymphoma lines (dose-response, 72 hrs incubation); assay type: cell-based; details: ABC, GCB, and THL lines; read-out: sensitivity to carfilzomib (range)
# Source text: Sensitivity to asparaginase and 11 chemotherapeutic agents (carfilzomib, doxorubicin, rapamycin, ibrutinib, cyclophosphamide, prednisolone, metformin, venetoclax, navitoclax, rituximab and vincristine) determined in 8 lymphoma lines, including diffuse large B-cell and Burkitt lymphomas. The investigated lymphoma lines are sensitive to asparagine depletion within the clinically achievable range. Expression of decisive genes (BCL2, BCL6, BCL2L1, MYC, ASNS) determined in 8 lymphoma lines (FIGS. 11 and 12). Increased expression of BCL2 served as marker for resistance of ibrutinib and rapamycin in triple hit lymphoma (FIGS. 11 and 12). Increased expression of ASNS served as marker for resistance of carfilzomib and asparaginase in Burkitt lymphoma (FIGS. 11 and 12). Identified combination agents that enhanced asparaginase activity in vitro include synergy of JZP458 and rituximab, venetoclax and ibrutinib in lymphoma lines (DLBCL) (see FIG. 13, FIG. 15, and FIG. 17). […] In vivo tolerability study of long acting Erwinia Asparaginase.
# ABC-DLBCL lines and one of GCB-DLBCL lines are very sensitive to JZP458 in the range of 0.011-7.3 IU/mL. Dose-response curve overlays-72 hrs incubation.
compound,measurement,setting,value
"CC(C)C[C@H](NC(=O)[C@H](CCc1ccccc1)NC(=O)CN1CCOCC1)C(=O)N[C@@H](Cc1ccccc1)C(=O)N[C@@H](CC(C)C)C(=O)[C@@]1(C)CO1 [carfilzomib, reference compound]",change of ASNS expression,[1]; Burkitt lymphoma lines,significantly increase
same,increase of ASNS expression,"[1]; Burkitt lymphoma lines (BJAB, RAJI, RAMOS), after treatment",1.25 fold
same,IC50,DLBCL lines,1.3 to 7.2 nM
